According to patent US20130287763A1, “COMBINATION THERAPY FOR TREATING CANCER COMPRISING AN IGF-1R INHIBITOR AND AN AKT INHIBITOR” (MERCK SHARP & DOHME CORP., priority 2010, published 2013):
“Also recorded” adds a separate entry of the source.

Assays:
HT-29 cells [1] = assay: Western blot of HT-29 cells treated with increasing doses of MK-2206; format: cell-based, human; details: MK-2206 0.041-1.11 um, western blot (FIG. 1A)
Description: All CRC and NSCLC cell lines were obtained from ATCC and maintained in 10% fetal bovine serum, FBS (Hyclone) containing media (DMEM or RPMI; Invitrogen Inc) supplemented with pen-strep (Invitrogen) at 37° C. according to the instructions from ATCC. Total protein lysates from cells (˜0.3 million) cultured in 6 well plates were generated by removing the media, rinsing once with PBS and lysing in NP-40 buffer (1% NP-40, 20 MM Tris-HCL (pH8.0), 137 mM NaCl, 10% glycerol, 2 mM EDTA, Mini Complete protease inhibitor, HALT phosphatase Inhibitor cocktail). Samples were western blotted with indicated total or phosphor-specific antibodies followed by a secondary antibody (Cell Signaling Technology, CST) and then incubated with SuperSignal chemiluminescence substrate (Pierce). The blots were then exposed to a Kodak Biomax Light Film. The antibodies against ERK, p-ERK (Thr202/Tyr204), AKT and p-AKT (Ser473), IGF1R13, S6K & P-S6K (T389), IRS1 & P-IRS1 (S302) and actin were obtained from CST. Total IGF1R antibody was obtained from Santa Cruz and GAPDH was obtained from Chemicon.

HT-29 cells [2] = assay: Phospho-RTK arrays, HT-29 cells; format: cell-based, human
Description: (§1) All CRC and NSCLC cell lines were obtained from ATCC and maintained in 10% fetal bovine serum, FBS (Hyclone) containing media (DMEM or RPMI; Invitrogen Inc) supplemented with pen-strep (Invitrogen) at 37° C. according to the instructions from ATCC.
(§2) About 2 million cells were cultured in 10 cm plates and protein lysates were prepared from a sub-confluent culture. 500 ug of protein lysate were incubated with RTK Arrays (R&D bioscience; cat# ARY001) and developed as detailed in the manual. The arrays were probed with HRP-conjugated P-Tyr antibody and then incubated with Super-Signal chemiluminescence substrate (Pierce) and blots were then exposed to a Kodak Biomax Light Film.

[3] = system: SKCO1 (KRASmut) xenograft tumors; assay: SKCO1 xenograft growth assessment; format: in vivo, mice; details: MK-0646 20 mg/kg i.p. once a week, MK-2206 140 mg/kg p.o. 3-times a week (FIG. 4)
Description: (§3) A suspension of human SKCO1 and SW837 cells (5×10^6) and HT29 (3×10^6) in Matrigel (Cat. #356231, BD Biosciences; 1:1 v/v) were injected subcutaneously into the right flank of 4-6 week old SCID Hairless Outbred (SHO), NOD SCID, or CD-1 nu/nu (Jackson Laboratories) mice, respectively. When tumors reached a size of ˜300 mm3 (Length*Width*Width*0.5), mice were randomized into treatment groups. […] Animals were weighed and tumor volumes were determined by calipering 2 times per week during the study and at termination. Tumor weight was measured and recorded at termination. On day 28 animals were sacrificed by CO2 asphyxiation. […] At time of sacrifice tumors pieces were collected for western blot analysis (snap frozen in liquid nitrogen) and for immunohistochemistry (10% neutral buffered formalin).

IGF-1R signaling pathway = assay: Western blot analysis of IGF-1R/PI3K pathway activity in xenograft tumor samples; format: in vivo, mice; details: 24 hrs after MK-0646 or 6 hrs after MK-2206 (FIG. 6)
Description: Total protein lysates from cells (˜0.3 million) cultured in 6 well plates were generated by removing the media, rinsing once with PBS and lysing in NP-40 buffer (1% NP-40, 20 MM Tris-HCL (pH8.0), 137 mM NaCl, 10% glycerol, 2 mM EDTA, Mini Complete protease inhibitor, HALT phosphatase Inhibitor cocktail). Samples were western blotted with indicated total or phosphor-specific antibodies followed by a secondary antibody (Cell Signaling Technology, CST) and then incubated with SuperSignal chemiluminescence substrate (Pierce). The blots were then exposed to a Kodak Biomax Light Film. The antibodies against ERK, p-ERK (Thr202/Tyr204), AKT and p-AKT (Ser473), IGF1R13, S6K & P-S6K (T389), IRS1 & P-IRS1 (S302) and actin were obtained from CST. Total IGF1R antibody was obtained from Santa Cruz and GAPDH was obtained from Chemicon. A suspension of human SKCO1 and SW837 cells (5×10^6) and HT29 (3×10^6) in Matrigel (Cat. #356231, BD Biosciences; 1:1 v/v) were injected subcutaneously into the right flank of 4-6 week old SCID Hairless Outbred (SHO), NOD SCID, or CD-1 nu/nu (Jackson Laboratories) mice, respectively. When tumors reached a size of ˜300 mm3 (Length*Width*Width*0.5), mice were randomized into treatment groups. […] Animals were weighed and tumor volumes were determined by calipering 2 times per week during the study and at termination. Tumor weight was measured and recorded at termination. […]

[4] = system: SKCO1 (CRC), HCC70 (breast cancer), H1793 (NSCLC) cells; assay: Phospho-RTK arrays, cell lines from different cancer types; format: cell-based, human; details: cell type-dependent
Description: as §2, with “All CRC and NSCLC cell lines were obtained from ATCC and maintained in 10% fetal bovine serum, FBS (Hyclone) containing media (DMEM or RPMI; Invitrogen Inc) supplemented with pen-strep (Invitrogen) at 37° C. according to the instructions from ATCC. About” for “About”

[5] = system: SW837 (KRASG12C) xenograft tumors; assay: SW837 xenograft growth assessment; format: in vivo, mice; details: compared to the vehicle treated group (FIG. 5)
Description: as §3

SW-837 cells = assay: Phospho-RTK arrays, SW-837 cells; format: cell-based, human; details: SW-837, 20.95 ug/ml MK-0646, 18 hrs (FIG. 3C)
Description: as §1, §2

[6] = HT-29 cells, 1 uM MK-2206, 18 hrs, RTK arrays (FIG. 1B)

Compound: NC1(c2ccc(-c3nc4ccn5c(=O)[nH]nc5c4cc3-c3ccccc3)cc2)CCC1 [MK-2206, 8-[4-(1-Aminocyclobutyl)phenyl]-9-phenyl[1,2,4]triazolo[3,4-f]-1,6-naphthyridin-3(2H)-one]
- phosphorylation of AKT (HT-29 cells [1]): diminished in a dose dependent manner
- total IGF-1R levels (HT-29 cells [1]): increase in a dose dependent manner
- phosphorylation of IGF-1R (HT-29 cells [2]; [6]): increase
- phosphorylation of IR and cMET (HT-29 cells [2]; [6]): observed
- tumor growth inhibition compared to vehicle treated control group [3]: significant growth inhibition; also recorded: significantly inhibited tumor growth
- IGF-1R signaling as measured by phosphorylation of IGF-1R (IGF-1R signaling pathway): feedback activation of IGF-1R signaling
- RTK activity (Her2) ([4]; MK-2206, 18 hrs, RTK arrays (FIG. 2)): can decrease
- phosphorylation of RTKs (IGF-1R, IR, cMET, Her2, Her3, EphA2) ([4]; SKCO1 370 nM, HCC70 370 nM, H1793 1 uM MK-2206, 18 hrs (FIG. 2)): increasing the phosphorylation of multiple RTKs
- tumor growth inhibition [5]: ~30%

Compound: MK-0646: humanized antibody characterized as binding IGF-1R as well as the IR/IGF-1 hybrid receptor
- amount of active cMET and insulin receptor (HT-29 cells [2]; HT-29, 20.95 ug/ml MK-0646, 18 hrs (FIG. 3A)): reduced
- tumor growth inhibition compared to vehicle treated control group [3]: significant growth inhibition; also recorded: significantly inhibited tumor growth
- amount of active cMET and insulin receptor (SW-837 cells): reduced
- tumor growth inhibition [5]: ~10%
